Measurements as given in the supplement of paper PMC9663587.

Columns and labels:
[1] = compound: CC(=O)O[C@H]1C(=O)[C@@]2(C)[C@H]([C@H](OC(=O)c3ccccc3)[C@]3(O)C[C@H](OC(=O)[C@H](O)[C@@H](NC(=O)c4ccccc4)c4ccccc4)C(C)=C1C3(C)C)[C@]1(OC(C)=O)CO[C@@H]1C[C@@H]2O [Paclitaxel]
[2] = compound: CC(C)NC[C@@H](C(=O)N1CCN(c2ncnc3c2[C@H](C)C[C@H]3O)CC1)c1ccc(Cl)cc1 [Ipatasertib/GDC0068]
[3] = compound: CCNC(=O)c1noc(-c2cc(C(C)C)c(O)cc2O)c1-c1ccc(CN2CCOCC2)cc1 [Luminespib/NVP-AUY922]
[4] = compound: CN(C)C/C=C/C(=O)Nc1ccc(O[C@@H]2CCC[C@@H](Nc3ncc(Cl)c(-c4c[nH]c5ccccc45)n3)C2)cc1 [BSJ-01-175]
[5] = compound: CN(C)CC[C@H](CSc1ccccc1)Nc1ccc(S(=O)(=O)NC(=O)c2ccc(N3CCN(Cc4ccccc4-c4ccc(Cl)cc4)CC3)cc2)cc1[N+](=O)[O-] [ABT-737]
[6] = compound: T1, CN1CC[C@H](c2c(O)cc(O)c3c(=O)cc(-c4ccccc4Cl)oc23)[C@H](O)C1 [Flavopiridol]
[7] = compound: COc1cccc2c1C(=O)c1c(O)c3c(c(O)c1C2=O)C[C@@](O)(C(=O)CO)C[C@@H]3O[C@H]1C[C@H](N)[C@H](O)[C@H](C)O1 [Doxorubicin]
[8] = compound: Cc1nc(-c2cn3c(n2)-c2ccc(-c4cnn(C(C)(C)C(N)=O)c4)cc2OCC3)n(C(C)C)n1 [Taselisib/GDC0032]
[9] = compound: O=C(c1cc(Cc2n[nH]c(=O)c3ccccc23)ccc1F)N1CCN(C(=O)C2CC2)CC1 [Olaparib/AZD2281]
[10] = compound: C=CC(=O)Nc1ccc(C(=O)Nc2[nH]nc3c2CN(C(=O)N[C@H](CN(C)C)c2ccccc2)C3(C)C)cc1 [YKL-5-124]; assay: GR value, 72 h; higher = faster growth (1 = untreated, <0 = killing);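 also: breast cancer and non-malignant breast epithelial lines, nine half-log doses, viable cells counted by Hoechst and LIVE/DEAD dye imaging versus time-zero plates and DMSO controls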
[11] = compound: CC(=O)c1c(C)c2cnc(Nc3ccc(N4CCN(CCOCCOCCOCCNC(=O)COc5cccc6c5C(=O)N(C5CCC(=O)NC5=O)C6=O)CC4)cn3)nc2n(C2CCCC2)c1=O [BSJ-03-123]; assay: as above
[12] = compound: CC(=O)c1c(C)c2cnc(Nc3ccc(N4CCNCC4)cn3)nc2n(C2CCCC2)c1=O; assay: as above
[13] = compound: CCN1CCN(Cc2ccc(Nc3ncc(F)c(-c4cc(F)c5nc(C)n(C(C)C)c5c4)n3)nc2)CC1; assay: as above
[14] = compound: CCc1cnn2c(NCc3ccc[n+]([O-])c3)cc(N3CCCC[C@H]3CCO)nc12; assay: as above
[15] = compound: CN(C)C(=O)c1cc2cnc(Nc3ccc(N4CCNCC4)cn3)nc2n1C1CCCC1 [LEE011/Ribociclib]; assay: as above
[16] = compound: CN(C)C/C=C/C(=O)Nc1ccc(C(=O)N2CCC[C@@H](Nc3ncc(Cl)c(-c4c[nH]c5ccccc45)n3)C2)cc1 [THZ531]; assay: as above
[17] = compound: T1, Flavopiridol; assay: as above
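For GR50, 72 h in this document: breast cancer and non-malignant breast epithelial cell lines, Deep Dye Drop or Dye Drop imaging, nine half-log doses, GR normalized to time-zero plates and DMSO-only controls.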

EFM19
GR50, 72 h [1]: 0.00438 µM
GR50, 72 h [2]: 1.45 µM
GR50, 72 h [3]: 0.021 µM
GR50, 72 h [4]: 1.51 µM
GR50, 72 h [5]: 8.35 µM
GR50, 72 h [6]: 0.284 µM
GR50, 72 h [7]: 0.0513 µM
GR50, 72 h [8]: 0.00333 µM
GR50, 72 h [9]: > 10 µM
GR value ([10]; 0.001 µM): 0.518 GR
GR value ([10]; 0.003162 µM): 0.329 GR
GR value ([10]; 0.01 µM): 0.259 GR
GR value ([10]; 0.03162 µM): 0.219 GR
GR value ([10]; 0.1 µM): 0.134 GR
GR value ([10]; 0.3162 µM): 0.178 GR
GR value ([10]; 1 µM): 0.106 GR
GR value ([10]; 3.162 µM): 0.149 GR
GR value ([10]; 10 µM): 0.0614 GR
GR value ([11]; 0.001 µM): 0.951 GR
GR value ([11]; 0.003162 µM): 0.918 GR
GR value ([11]; 0.01 µM): 0.806 GR
GR value ([11]; 0.03162 µM): 0.733 GR
GR value ([11]; 0.1 µM): 0.717 GR
GR value ([11]; 0.3162 µM): 0.654 GR
GR value ([11]; 1 µM): 0.48 GR
GR value ([11]; 3.162 µM): 0.447 GR
GR value ([11]; 10 µM): 0.117 GR
GR value ([12]; 0.0003162 µM): 1.05 GR
GR value ([12]; 0.001 µM): 1.03 GR
GR value ([12]; 0.003162 µM): 1.03 GR
GR value ([12]; 0.01 µM): 1.02 GR
GR value ([12]; 0.03162 µM): 0.941 GR
GR value ([12]; 0.1 µM): 0.843 GR
GR value ([12]; 0.3162 µM): 0.626 GR
GR value ([12]; 1 µM): 0.401 GR
GR value ([12]; 3.162 µM): 0.284 GR
GR value ([13]; 0.001 µM): 0.984 GR
GR value ([13]; 0.003162 µM): 0.967 GR
GR value ([13]; 0.01 µM): 0.802 GR
GR value ([13]; 0.03162 µM): 0.442 GR
GR value ([13]; 0.1 µM): 0.359 GR
GR value ([13]; 0.3162 µM): 0.337 GR
GR value ([13]; 1 µM): 0.327 GR
GR value ([13]; 3.162 µM): 0.359 GR
GR value ([13]; 10 µM): 0.269 GR
GR value ([14]; 0.0001 µM): 1.1 GR
GR value ([14]; 0.0003162 µM): 1.09 GR
GR value ([14]; 0.001 µM): 1.15 GR
GR value ([14]; 0.003162 µM): 1.15 GR
GR value ([14]; 0.01 µM): 1.05 GR
GR value ([14]; 0.03162 µM): 0.509 GR
GR value ([14]; 0.1 µM): -0.295 GR
GR value ([14]; 0.3162 µM): -0.448 GR
GR value ([14]; 1 µM): -0.534 GR
GR value ([15]; 0.001 µM): 0.892 GR
GR value ([15]; 0.003162 µM): 0.802 GR
GR value ([15]; 0.01 µM): 0.825 GR
GR value ([15]; 0.03162 µM): 0.914 GR
GR value ([15]; 0.1 µM): 0.688 GR
GR value ([15]; 0.3162 µM): 0.61 GR
GR value ([15]; 1 µM): 0.6 GR
GR value ([15]; 3.162 µM): 0.415 GR
GR value ([15]; 10 µM): 0.355 GR
GR value ([16]; 0.0001 µM): 0.996 GR
GR value ([16]; 0.0003162 µM): 0.978 GR
GR value ([16]; 0.001 µM): 0.907 GR
GR value ([16]; 0.003162 µM): 0.911 GR
GR value ([16]; 0.01 µM): 1.07 GR
GR value ([16]; 0.03162 µM): 0.896 GR
GR value ([16]; 0.1 µM): 1 GR
GR value ([16]; 0.3162 µM): 0.801 GR
GR value ([16]; 1 µM): -0.59 GR
GR value ([17]; 0.0001 µM): 1.03 GR
GR value ([17]; 0.0003162 µM): 0.976 GR
GR value ([17]; 0.001 µM): 0.978 GR
GR value ([17]; 0.003162 µM): 0.991 GR
GR value ([17]; 0.01 µM): 0.877 GR
GR value ([17]; 0.03162 µM): 0.976 GR
GR value ([17]; 0.1 µM): 0.809 GR
GR value ([17]; 0.3162 µM): 0.466 GR
GR value ([17]; 1 µM): -0.199 GR
